Measurements taken from patent publication US20200246284A1 (Academia Sinica, priority 2015, published 2020).
Read-outs that look alike come from different tables or passages of the source. Values belong to the compound of their own block, whether it stands above or below them.

Assays:
Ly3 (OCI-LY3) = details: human
Ly18 = experiment: Cytotoxicity DLBCL; details: read-out: cytotoxicity IC50; LY18, DLBCL GCB
NECB-1 = experiment: Cytotoxicity mantle cell lymphoma
Granta = experiment: Combination with BO-1055, MCL (Tables 28, 29); type: cell-based, human
Mino [1] = experiment: Combination with BO-1055, MCL (Tables 28, 29); type: cell-based, human
SUDHL-5 = experiment: Cytotoxicity DLBCL; details: read-out: cytotoxicity IC50; SUDHL-5, DLBCL GCB
Granta-519 [2] = test system: Granta-519
LY1 = details: human
NECB1 = experiment: Combination with BO-1055, MCL (Tables 28, 29); type: cell-based, human
Mino [3] = test system: Mino
HBL1 = details: human
U2932 = details: human
Toledo = details: human
Z-138 [4] = experiment: Combination with BO-1055, MCL (Tables 28, 29); type: cell-based, human
REC-1 = experiment: Combination with BO-1055, MCL (Tables 28, 29); type: cell-based, human
[5] = test system: spontaneous murine B-cell lymphoma; details: mouse
FBMC fetal BM stroma = experiment: Cytotoxicity normal tissue 72 hr; type: cell-based; details: Homo sapiens
JEKO-1 [6] = experiment: Cytotoxicity mantle cell lymphoma
H889 = experiment: Cytotoxicity SCLC 72 hr alamar blue; type: cell-based, human; details: Homo sapiens, NCI-H889, 72 h
Mino [7] = experiment: Cytotoxicity mantle cell lymphoma; details: human, Mino mantle cell lymphoma cells, 72 h
Granta-519 [8] = experiment: Cytotoxicity mantle cell lymphoma; details: human, Granta-519 mantle cell lymphoma cells, 72 h
[9] = test system: primary patient Ewing's sarcoma xenograft in NSG mice; experiment: Cyclophosphamide-resistant primary Ewing's sarcoma xenograft; type: in vivo, mouse; details: cyclophosphamide 70 mg/kg i.p. x3, then BO-1055 30 mg/kg iv x4
MA-10-W51 = experiment: Cytotoxicity leukemia; type: cell-based, human; details: growth factor dependent MA-10-W51
Description: Human cord blood CD34+ cells transduced with MLL-AF9 gene: MA-10, MA-18. Human bone marrow CD34+ cells transduced with MLL-AF9 gene: MA-23. Human cord blood CD34+ cells transduced with MLL-AF9 and N-ras genes: MA-9.3, […] ).

[10] = test system: nude mice bearing prostate 22Rv/HL2; details: mouse, in vivo
[11] = test system: nude mice bearing prostate 22Rv/HL2 tumor xenografts; details: mouse, in vivo
[12] = test system: nude mice bearing prostate 22Rv/HL2; details: mouse, in vivo; remark: listed apart in the source
[13] = test system: FTE-hTERT Fallopian epithelium; experiment: Cytotoxicity normal tissue 72 hr; type: cell-based, human
[14] = test system: HUVEC umbilical endothelium; experiment: Cytotoxicity normal tissue 72 hr; type: cell-based, human
[15] = test system: BCI-NSI hTERT bronchial epithelium; experiment: Cytotoxicity normal tissue 72 hr; type: cell-based, human
BMMSC BM mesenchyme = experiment: Cytotoxicity normal tissue 72 hr; type: cell-based, human
hERG = hERG (Homo sapiens, UniProt Q12809); experiment: in vitro
Chain of hERG (Q12809 whole entry): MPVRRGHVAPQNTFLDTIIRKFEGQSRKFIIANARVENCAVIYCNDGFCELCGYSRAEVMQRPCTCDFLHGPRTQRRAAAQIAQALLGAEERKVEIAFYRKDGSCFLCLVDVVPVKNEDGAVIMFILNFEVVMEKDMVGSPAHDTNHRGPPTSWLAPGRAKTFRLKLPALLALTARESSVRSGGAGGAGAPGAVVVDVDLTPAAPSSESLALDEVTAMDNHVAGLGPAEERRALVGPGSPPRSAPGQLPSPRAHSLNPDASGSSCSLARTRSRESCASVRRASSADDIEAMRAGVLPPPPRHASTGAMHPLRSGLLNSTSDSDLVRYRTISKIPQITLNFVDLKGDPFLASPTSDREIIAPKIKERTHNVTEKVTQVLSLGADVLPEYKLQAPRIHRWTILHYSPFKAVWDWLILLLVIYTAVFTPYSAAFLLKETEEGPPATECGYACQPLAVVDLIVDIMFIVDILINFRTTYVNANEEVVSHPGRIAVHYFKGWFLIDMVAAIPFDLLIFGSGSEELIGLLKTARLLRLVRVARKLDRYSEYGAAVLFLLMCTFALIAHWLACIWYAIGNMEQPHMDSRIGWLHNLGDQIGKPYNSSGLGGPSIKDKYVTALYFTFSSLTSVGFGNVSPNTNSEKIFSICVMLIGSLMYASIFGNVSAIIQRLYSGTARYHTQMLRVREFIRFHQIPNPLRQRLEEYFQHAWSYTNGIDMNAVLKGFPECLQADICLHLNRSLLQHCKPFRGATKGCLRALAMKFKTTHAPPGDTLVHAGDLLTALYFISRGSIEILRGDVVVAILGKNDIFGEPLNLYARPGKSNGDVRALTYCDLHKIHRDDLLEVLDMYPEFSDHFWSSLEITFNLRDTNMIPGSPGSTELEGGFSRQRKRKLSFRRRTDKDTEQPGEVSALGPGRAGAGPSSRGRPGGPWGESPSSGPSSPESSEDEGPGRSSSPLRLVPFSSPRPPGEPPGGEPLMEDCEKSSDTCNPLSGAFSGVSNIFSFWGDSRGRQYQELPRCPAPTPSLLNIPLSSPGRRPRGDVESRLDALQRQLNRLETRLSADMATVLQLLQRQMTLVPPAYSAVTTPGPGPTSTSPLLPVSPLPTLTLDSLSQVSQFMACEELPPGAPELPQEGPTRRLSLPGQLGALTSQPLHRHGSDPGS

Ly19 = experiment: cells; details: Homo sapiens, read-out: cytotoxicity IC50
Farage = experiment: cells; details: Homo sapiens, read-out: cytotoxicity IC50
Z-138 [16] = experiment: Cytotoxicity mantle cell lymphoma; details: read-out: cytotoxicity IC50, Z-138, mantle cell lymphoma
A204 rhabdomyosarcoma = experiment: Cytotoxicity sarcoma; details: read-out: cytotoxic activity (IC50), A204 (rhabdoid?)
CV1 renal fibroblasts = experiment: Cytotoxicity normal tissue 72 hr; type: cell-based, African green monkey (Cercopithecus aethiops); details: Chlorocebus sabaeus, Fibroblast
JEKO-1 [17] = details: human
[18] = test system: normal human, murine or primate cell and tissue types; experiment: Cytotoxicity, panel of normal tissues (MTT, alamar blue); type: cell-based; details: 5 highly drug resistant normal tissues
[19] = test system: Rhabdomyosarcoma cell lines; experiment: Cytotoxicity, sarcoma panel (Table 30); type: cell-based; details: Homo sapiens, 5/6 rhabdomyosarcoma lines
MS-5 adult BM stroma = experiment: Cytotoxicity normal tissue 72 hr; type: cell-based, mouse; details: MS-5 (mouse), 72 hr; listed as TMZ; read-out: IC50
in vitro = details: rat, microsomes
[20] = rat
[21] = read-out: cytotoxicity IC50, NECB-1, mantle cell lymphoma

Compound: CC(C)C[C@H](NC(=O)[C@H](Cc1ccccc1)NC(=O)c1cnccn1)B(O)O [velcade, Bortezomib]
IC50 (Pfeiffer; human): 0.004 µM | IC50 (Ly3 (OCI-LY3)): 0.021 µM | IC50 (Ly18): 0.01 µM | IC50 (NECB-1; [21]): 0.143 µM | interaction with BO-1055 (Granta): synergistic with combo-1 and antagonistic with combo-2 | interaction with BO-1055 (Mino [1]): synergistic cytotoxic with both combinations | IC50 (SUDHL-5): 0.018 µM | IC50 (Granta-519 [2]; human): 0.008 µM | IC50 (Ly8; human): 0.078 µM | IC50 (LY1): 0.005 µM | interaction with BO-1055 (NECB1): synergistic with combo-1 and antagonistic with combo-2 | IC50 (Mino [3]; human): 0.042 µM | IC50 (HBL1): 0.004 µM | IC50 (SUDHL-6; human): 0.001 µM | IC50 (U2932): 0.005 µM | IC50 (Toledo): 0.108 µM | interaction with BO-1055 (Z-138 [4]): synergistic cytotoxic with both combinations | IC50 (SUDHL-4; human): 0.003 µM | interaction with BO-1055 (REC-1): antagonistic in both combinations | IC50 [5]: 0.006 µM

Compound: N[C@@H](Cc1ccc(N(CCCl)CCCl)cc1)C(=O)O [Melphalan]
IC50 (FBMC fetal BM stroma): > 10 µM | IC50 (JEKO-1 [6]): 1.1 µM

Compound: O=NN(CCCl)C(=O)NCCCl [BCNU, BCNU/Carmustine]
IC50 (H889): > 45 µM

Compound: Cc1[nH]c2ccccc2c1CCNCc1ccc(/C=C/C(=O)NO)cc1 [Panobinostat]
IC50 (NECB-1; human, NECB-1 mantle cell lymphoma cells, 72 h): 0.02 µM | IC50 (Mino [7]): 0.291 µM | IC50 (JEKO-1 [6]; human, JEKO-1 mantle cell lymphoma cells, 72 h): 0.21 µM | IC50 (Granta-519 [8]): 0.041 µM

Compound: O=P1(N(CCCl)CCCl)NCCCO1 (centres unmarked) [cyclophosphamide]
tumor growth [9]: Tumor growth was not inhibited

Compound: CCc1c(CO)c(CO)c2n1Cc1c(c3ccccc3n1C)C2 [BO-1978]
cytotoxicity, dose titration (FIG. 9) (MA-10-W51): highly cytotoxic, with BO-1978 more so than BO-1055

BUN [10]: 21.93 mg/dL | CREA [10]: 0.32 mg/dL | UA [10]: 3.60 mg/dL | pathological change in heart, liver, spleen, lung and kidney [11]: no apparent pathological change | BASO [12]: 0.08 10^3/μL | EOS [12]: 0.12 10^3/μL | LYM [12]: 0.66 10^3/μL | MONO [12]: 0.04 10^3/μL | NEU [12]: 1.34 10^3/μL | PLT [12]: 308 10^3/μL | RBC [12]: 7.55 10^6/μL | WBC [12]: 2.49 10^3/μL
Compound: CC(=O)O[C@@]12CO[C@@H]1C[C@H](O)[C@@]1(C)C(=O)[C@H](O)C3=C(C)[C@@H](OC(=O)[C@H](O)[C@@H](NC(=O)OC(C)(C)C)c4ccccc4)C[C@@](O)([C@@H](OC(=O)c4ccccc4)[C@H]21)C3(C)C [Docetaxel]
ALT [10]: 54.08 U/L | AST [10]: 108.60 U/L

Compound: CNC(=O)c1cc(Oc2ccc(NC(=O)Nc3ccc(Cl)c(C(F)(F)F)c3)cc2)ccn1 [SOR]
IC50 (Pfeiffer): 4.57 µM | IC50 (Granta-519 [2]): ≥ 8 µM | IC50 (Ly10): ≥ 8 µM | IC50 (Ly8): ≥ 8 µM | IC50 (Mino [3]): ≥ 8 µM | IC50 (SUDHL-6): ≥ 8 µM | IC50 (SUDHL-4): 5.62 µM

Compound: CCc1c2c(nc3ccc(O)cc13)-c1cc3c(c(=O)n1C2)COC(=O)[C@]3(O)CC [SN-38]
IC50 [13]: 2000 µM | IC50 ([14]; read-out: IC50): 400 µM | IC50 ([15]; read-out: IC50): 500 µM | IC50 (BMMSC BM mesenchyme): 200 µM | IC50 (JEKO-1 [6]): 0.8 µM

Compound: CC[C@]1(O)C[C@H]2CN(CCc3c([nH]c4ccccc34)[C@@](C(=O)OC)(c3cc4c(cc3OC)N(C=O)[C@H]3[C@@](O)(C(=O)OC)[C@H](OC(C)=O)[C@]5(CC)C=CCN6CC[C@]43[C@@H]65)C2)C1 [Vincristine]
IC50 (JEKO-1 [6]; JEKO-1, 72 hr (Table 27)): 0.39 µM

Compound: COc1cc([C@@H]2c3cc4c(cc3[C@@H](O[C@@H]3O[C@@H]5CO[C@@H](C)O[C@H]5[C@H](O)[C@H]3O)[C@H]3COC(=O)[C@H]23)OCO4)cc(OC)c1O [Etoposide]
IC50 (JEKO-1 [6]): 0.78 µM

Compound: COc1cccc2c1C(=O)c1c(O)c3c(c(O)c1C2=O)C[C@@](O)(C(=O)CO)C[C@@H]3O[C@H]1C[C@H](N)[C@H](O)[C@H](C)O1 [Doxorubicin]
IC50 (Pfeiffer; human): 0.061 µM | IC50 (Ly18): 0.097 µM | IC50 (NECB-1; [21]): 0.163 µM | IC50 (NECB-1; read-out: cytotoxicity IC50, NECB-1, mantle cell lymphoma, listed as Doxo): 1.23 µM | IC50 (hERG): 0.03 ± 0.03 µM | interaction with BO-1055 (Granta): synergistic with combo-1 and antagonistic against combo-2 | interaction with BO-1055 (Mino [1]): both combinations were synergistic | IC50 (SUDHL-5): 0.912 µM | IC50 (Ly10; human): 0.084 µM | IC50 (Ly19): 0.121 µM | interaction with BO-1055 (NECB1): synergistic with combo-1 and antagonistic against combo-2 | IC50 (Farage): 0.273 µM | IC50 (HBL1): 0.211 µM | IC50 (SUDHL-6; human): 0.195 µM | IC50 (U2932): 0.05 µM | IC50 (Toledo): > 10 µM | IC50 (JEKO-1 [6]): 0.05 µM | interaction with BO-1055 (Z-138 [4]): both combinations were synergistic | IC50 (Z-138 [16]): 0.033 µM | IC50 (Z-138 [16]; listed as Doxo): 0.34 µM | interaction with BO-1055 (REC-1): both combinations were antagonistic | IC50 (A204 rhabdomyosarcoma): 0.011 µM

Compound: Cn1c(CCCC(=O)O)nc2cc(N(CCCl)CCCl)ccc21 [Bendamustine]
IC50 [14]: 150 µM | IC50 [15]: 150 µM | IC50 (CV1 renal fibroblasts; 72 h): > 100 µM | IC50 (JEKO-1 [6]): 6.25 µM

Compound: CC(=O)O[C@H]1C(=O)[C@@]2(C)[C@H]([C@H](OC(=O)c3ccccc3)[C@]3(O)C[C@H](OC(=O)[C@H](O)[C@@H](NC(=O)c4ccccc4)c4ccccc4)C(C)=C1C3(C)C)[C@]1(OC(C)=O)CO[C@@H]1C[C@@H]2O [Paclitaxel]
IC50 (NECB-1; [21]): 0.064 µM | IC50 (Granta-519 [2]; human): 0.049 µM | IC50 (Mino [3]; human): 0.025 µM | IC50 (JEKO-1 [17]): 0.017 µM | IC50 (Z-138 [16]): 0.012 µM

Compound: Cn1nnc2c(C(N)=O)ncn2c1=O [Temozolomide]
IC50 [18]: ≥ 20 µM | IC50 (CV1 renal fibroblasts; CV1 primate, 72 hr, read-out: IC50): > 100 µM | IC50 [19]: ≥ 191 µM | IC50 (MS-5 adult BM stroma): 5.59 µM | IC50 (A204 rhabdomyosarcoma): 569 µM

Compound: CCOc1ccc2ccc(=O)oc2c1 [7-EC, 7-Ethoxycoumarin]
half-life (in vitro): 23.5 min | MR (metabolic rate) [20]: 0.0448 nmol/min/mg | % Remaining at 60 min ([20]; microsomes, 1 h): 18% | Microsome stability, standards ([20]; microsomes, 1 h): High standard = 95% | Microsome stability, turnover ([20]; microsomes, 1 h): 7-EC ≥ 82%)
